Results from the supplement of paper PMC10307832.

Legend:
Assay in all cases: relative viability (nuclei count vs DMSO), 5 days (fraction); higher = more cells survive
CAL-12T = test system: CAL-12T
Procedure, shortened: (§1)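 The day after seeding in 1536-well plates, lung cancer cell lines were treated by pin tool with a single drug, or with a fixed anchor-drug dose together with five library-drug doses (not always all listed) in √10 steps. After 5 days, a combined fix-and-stain solution (final 0.05% Triton X-100, 1% formaldehyde, 1 ug/ml Hoechst) was added. Nuclei counted on 4× images gave relative viability as treated counts over vehicle counts, reported as the median of duplicate plates.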

NCI-H1666 = test system: NCI-H1666
Procedure, shortened: as §1

COR-L23 = test system: COR-L23
Procedure, shortened: as §1

NCI-H1437 = test system: NCI-H1437
Procedure, shortened: as §1

NCI-H460 = test system: NCI-H460
Procedure, shortened: as §1

PC-14 = test system: PC-14
Procedure, shortened: as §1

NCI-H1755 = test system: NCI-H1755
Procedure, shortened: as §1

NCI-H1792 = test system: NCI-H1792
Procedure, shortened: as §1

NCI-H1651 = test system: NCI-H1651
Procedure, shortened: as §1

NCI-H2170 = test system: NCI-H2170
Procedure, shortened: as §1

NCI-H520 = test system: NCI-H520
Procedure, shortened: as §1

LXF-289 = test system: LXF-289
Procedure, shortened: as §1

SK-MES-1 = test system: SK-MES-1
Procedure, shortened: as §1

HCC-44 = test system: HCC-44
Procedure, shortened: as §1

NCI-H1563 = test system: NCI-H1563
Procedure, shortened: as §1

BEN = test system: BEN
Procedure, shortened: as §1

NCI-H1650 = test system: NCI-H1650
Procedure, shortened: as §1

LU99A = test system: LU99A
Procedure, shortened: as §1

NCI-H1355 = test system: NCI-H1355
Procedure, shortened: as §1

NCI-H2087 = test system: NCI-H2087
Procedure, shortened: as §1

NCI-H1993 = test system: NCI-H1993
Procedure, shortened: as §1

NCI-H2085 = test system: NCI-H2085
Procedure, shortened: as §1

## Cc1cn(-c2cc(NC(=O)c3ccc(C)c(Nc4nccc(-c5cccnc5)n4)c3)cc(C(F)(F)F)c2)cn1 [Nilotinib] + CS(=O)(=O)N1CCN(Cc2cc3nc(-c4cccc5[nH]ncc45)nc(N4CCOCC4)c3s2)CC1 [Pictilisib] (partner 1 µM)
CAL-12T; first compound 0.001 µM
  relative viability: 0.45
CAL-12T; first compound 0.01 µM
  relative viability: 0.354
CAL-12T; first compound 0.03162 µM
  relative viability: 0.307
CAL-12T; first compound 0.1 µM
  relative viability: 0.398
NCI-H1666; first compound 0.001 µM
  relative viability: 0.348
NCI-H1666; first compound 0.003162 µM
  relative viability: 0.319
NCI-H1666; first compound 0.01 µM
  relative viability: 0.373
NCI-H1666; first compound 0.03162 µM
  relative viability: 0.463
NCI-H1666; first compound 0.1 µM
  relative viability: 0.397
COR-L23; first compound 0.001 µM
  relative viability: 0.777
COR-L23; first compound 0.003162 µM
  relative viability: 1.01
COR-L23; first compound 0.01 µM
  relative viability: 1.4
COR-L23; first compound 0.03162 µM
  relative viability: 0.901
COR-L23; first compound 0.1 µM
  relative viability: 0.607
NCI-H1437; first compound 0.001 µM
  relative viability: 0.381
NCI-H1437; first compound 0.003162 µM
  relative viability: 0.414
NCI-H1437; first compound 0.01 µM
  relative viability: 0.373
NCI-H1437; first compound 0.03162 µM
  relative viability: 0.47
NCI-H1437; first compound 0.1 µM
  relative viability: 0.44
NCI-H460; first compound 0.001 µM
  relative viability: 0.356
NCI-H460; first compound 0.003162 µM
  relative viability: 0.41
NCI-H460; first compound 0.01 µM
  relative viability: 0.402
NCI-H460; first compound 0.03162 µM
  relative viability: 0.263
NCI-H460; first compound 0.1 µM
  relative viability: 0.418
PC-14; first compound 0.003162 µM
  relative viability: 0.83
PC-14; first compound 0.01 µM
  relative viability: 0.841
PC-14; first compound 0.03162 µM
  relative viability: 0.503
PC-14; first compound 0.1 µM
  relative viability: 0.664
NCI-H1755; first compound 0.001 µM
  relative viability: 0.445
NCI-H1755; first compound 0.003162 µM
  relative viability: 0.466
NCI-H1755; first compound 0.01 µM
  relative viability: 0.411
NCI-H1755; first compound 0.03162 µM
  relative viability: 0.34
NCI-H1755; first compound 0.1 µM
  relative viability: 0.261
NCI-H1792; first compound 0.001 µM
  relative viability: 0.209
NCI-H1792; first compound 0.01 µM
  relative viability: 0.266
NCI-H1651; first compound 0.001 µM
  relative viability: 0.576
NCI-H1651; first compound 0.003162 µM
  relative viability: 0.619
NCI-H1651; first compound 0.01 µM
  relative viability: 0.638
NCI-H1651; first compound 0.03162 µM
  relative viability: 0.568
NCI-H1651; first compound 0.1 µM
  relative viability: 0.308
NCI-H2170; first compound 0.001 µM
  relative viability: 0.283
NCI-H2170; first compound 0.003162 µM
  relative viability: 0.306
NCI-H2170; first compound 0.01 µM
  relative viability: 0.296
NCI-H2170; first compound 0.03162 µM
  relative viability: 0.349
NCI-H2170; first compound 0.1 µM
  relative viability: 0.299
NCI-H520; first compound 0.001 µM
  relative viability: 0.283
NCI-H520; first compound 0.01 µM
  relative viability: 0.296
NCI-H520; first compound 0.03162 µM
  relative viability: 0.283
NCI-H520; first compound 0.1 µM
  relative viability: 0.232
LXF-289; first compound 0.001 µM
  relative viability: 0.837
LXF-289; first compound 0.003162 µM
  relative viability: 0.946
LXF-289; first compound 0.01 µM
  relative viability: 0.858
LXF-289; first compound 0.03162 µM
  relative viability: 0.667
LXF-289; first compound 0.1 µM
  relative viability: 0.335
SK-MES-1; first compound 0.001 µM
  relative viability: 0.433
SK-MES-1; first compound 0.003162 µM
  relative viability: 0.447
SK-MES-1; first compound 0.01 µM
  relative viability: 0.424
SK-MES-1; first compound 0.03162 µM
  relative viability: 0.396
SK-MES-1; first compound 0.1 µM
  relative viability: 0.465
HCC-44; first compound 0.001 µM
  relative viability: 0.607
HCC-44; first compound 0.003162 µM
  relative viability: 0.743
HCC-44; first compound 0.01 µM
  relative viability: 0.589
HCC-44; first compound 0.03162 µM
  relative viability: 0.517
HCC-44; first compound 0.1 µM
  relative viability: 0.37
NCI-H1563; first compound 0.001 µM
  relative viability: 0.553
NCI-H1563; first compound 0.003162 µM
  relative viability: 0.608
NCI-H1563; first compound 0.01 µM
  relative viability: 0.649
NCI-H1563; first compound 0.03162 µM
  relative viability: 0.602
NCI-H1563; first compound 0.1 µM
  relative viability: 0.46
BEN; first compound 0.001 µM
  relative viability: 0.588
BEN; first compound 0.003162 µM
  relative viability: 0.552
BEN; first compound 0.01 µM
  relative viability: 0.574
BEN; first compound 0.1 µM
  relative viability: 0.556
NCI-H1650; first compound 0.001 µM
  relative viability: 0.534
NCI-H1650; first compound 0.003162 µM
  relative viability: 0.709
NCI-H1650; first compound 0.01 µM
  relative viability: 0.562
NCI-H1650; first compound 0.03162 µM
  relative viability: 0.546
NCI-H1650; first compound 0.1 µM
  relative viability: 0.288
LU99A; first compound 0.001 µM
  relative viability: 0.295
LU99A; first compound 0.003162 µM
  relative viability: 0.412
LU99A; first compound 0.01 µM
  relative viability: 0.328
LU99A; first compound 0.03162 µM
  relative viability: 0.342
LU99A; first compound 0.1 µM
  relative viability: 0.277
NCI-H1355; first compound 0.001 µM
  relative viability: 0.399
NCI-H1355; first compound 0.003162 µM
  relative viability: 0.468
NCI-H1355; first compound 0.01 µM
  relative viability: 0.371
NCI-H1355; first compound 0.03162 µM
  relative viability: 0.421
NCI-H1355; first compound 0.1 µM
  relative viability: 0.19
NCI-H2087; first compound 0.001 µM
  relative viability: 0.759
NCI-H2087; first compound 0.003162 µM
  relative viability: 0.846
NCI-H2087; first compound 0.01 µM
  relative viability: 0.984
NCI-H2087; first compound 0.03162 µM
  relative viability: 0.606
NCI-H2087; first compound 0.1 µM
  relative viability: 0.32
NCI-H1993; first compound 0.001 µM
  relative viability: 0.984
NCI-H1993; first compound 0.003162 µM
  relative viability: 0.682
NCI-H1993; first compound 0.01 µM
  relative viability: 0.789
NCI-H1993; first compound 0.03162 µM
  relative viability: 0.917
NCI-H1993; first compound 0.1 µM
  relative viability: 0.673
NCI-H2085; first compound 0.001 µM
  relative viability: 0.435
NCI-H2085; first compound 0.003162 µM
  relative viability: 0.457
NCI-H2085; first compound 0.01 µM
  relative viability: 0.402
NCI-H2085; first compound 0.03162 µM
  relative viability: 0.466
NCI-H2085; first compound 0.1 µM
  relative viability: 0.405
